Earlier results on one molecule are cited in patent publication US20090082464A1, “EXTERNALLY MASKED NEOPENTYL SULFONYL ESTER CYCLIZATION RELEASE PRODRUGS OF ACAMPROSATE, COMPOSITIONS THEREOF, AND METHODS OF USE” (priority 2007, published 2009).

The subject of data set [1] is cocaine conditioned mice. The settings on record: 100 mg/kg for 3 days.

On to `CC(=O)NCCCS(=O)(=O)O` [acamprosate, 3-(Acetylamino)propylsulfonic acid], for which, under “doses of about 1-2 gm per day”, the steady-state plasma concentration was 370 to 640 ng/mL and the “time post-dose at which steady-state plasma concentration occurs” value was 3 to 8 h. For the same molecule, the “oral bioavailability of acamprosate” value (humans, oral) is “about 11%”. Also, the relapse-like behavior entry in data set [1] was “attenuated relapse-like behavior”.
